Results as given in ChEMBL document CHEMBL1201862, “PubChem BioAssay data set” (2004).
Active and inactive are the calls of the source.

Columns and labels:
[1] = molecular target: Eukaryotic translation initiation factor 4H (Homo sapiens, UniProt Q15056); test: inhibitors of translation initiation factor eIF4H – SAR follow-up (AID 435011); type: functional
[2] = molecular target: Polyadenylate-binding protein 1 (Homo sapiens, UniProt P11940); test: PABP inhibition in translation initiation, SAR follow-up (AID 435018); type: functional
Tumor necrosis factor = Tumor necrosis factor (Homo sapiens, UniProt P01375); test: analog potency on TNFa NF-kB signaling – cell-based, revised, SAR follow-up (AID 2337); type: functional
[3] = molecular target: Nucleotide-binding oligomerization domain-containing protein 1 (Homo sapiens, UniProt Q9Y239); test: blockers of NOD1 pathway activity – revised, SAR follow-up (AID 2333); type: functional
HEK293 = test: cells; conditions: Homo sapiens;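 further: cells exposed to compound for 14 hours overnight before viability readout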
[4] = molecular target: Eukaryotic translation initiation factor 4E (Mus musculus, UniProt P63073); test: blockers of eIF4G binding by eIF4E – biochemical, TR-FRET, dose response (AID 855); type: functional;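 further: potency for disrupting eIF4E binding to eIF4GI seen as loss of FRET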
Hexokinase HKDC1 = molecular target: T1, Hexokinase HKDC1 (Homo sapiens, UniProt Q2TB90); test: inhibition of HKDC1 glucose phosphorylation – biochemical, W721R variant, dose response (AID 504729); type: functional
T1 sequence (Q2TB90 whole entry): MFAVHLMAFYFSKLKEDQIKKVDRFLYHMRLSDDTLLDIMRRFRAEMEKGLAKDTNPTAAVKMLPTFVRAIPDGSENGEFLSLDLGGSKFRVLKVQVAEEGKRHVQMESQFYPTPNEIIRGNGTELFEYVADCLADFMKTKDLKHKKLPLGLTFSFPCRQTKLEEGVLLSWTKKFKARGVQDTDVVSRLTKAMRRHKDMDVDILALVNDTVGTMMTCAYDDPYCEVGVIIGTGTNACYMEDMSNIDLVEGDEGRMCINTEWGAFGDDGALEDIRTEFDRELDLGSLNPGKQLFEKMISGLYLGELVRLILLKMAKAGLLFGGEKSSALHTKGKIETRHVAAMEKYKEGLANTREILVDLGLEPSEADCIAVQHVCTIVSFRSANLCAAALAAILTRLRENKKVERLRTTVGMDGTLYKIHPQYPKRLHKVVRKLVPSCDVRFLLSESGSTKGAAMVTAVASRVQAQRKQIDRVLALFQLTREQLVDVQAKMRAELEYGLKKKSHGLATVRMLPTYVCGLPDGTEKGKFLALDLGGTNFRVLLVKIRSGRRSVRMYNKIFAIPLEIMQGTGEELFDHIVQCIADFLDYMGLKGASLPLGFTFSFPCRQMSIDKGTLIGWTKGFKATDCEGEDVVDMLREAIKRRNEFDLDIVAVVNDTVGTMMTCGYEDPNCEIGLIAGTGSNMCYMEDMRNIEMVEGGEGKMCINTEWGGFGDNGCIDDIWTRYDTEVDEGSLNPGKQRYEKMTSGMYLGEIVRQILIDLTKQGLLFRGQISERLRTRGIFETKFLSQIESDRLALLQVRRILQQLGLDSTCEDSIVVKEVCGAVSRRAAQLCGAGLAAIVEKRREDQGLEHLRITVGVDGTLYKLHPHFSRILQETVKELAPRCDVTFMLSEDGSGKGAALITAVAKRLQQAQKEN

[5] = molecular target: Tyrosine-protein phosphatase non-receptor type 11 (Homo sapiens, UniProt Q06124); test: PTPN11 enzyme inhibitors – biochemical, selectivity assay for STEP inhibitor project, dose response (AID 602367); type: functional; conditions: read-out: IC50_Mean
[6] = molecular target: Tyrosine-protein phosphatase non-receptor type 5 (Homo sapiens, UniProt P54829); test: PTPN5 enzyme inhibition – biochemical, fluorescence intensity, uHTS hits, confirmation (AID 602372); type: functional; conditions: read-out: IC50_Mean
[7] = molecular target: Dual specificity protein phosphatase 3 (Homo sapiens, UniProt P51452); test: VHR phosphatase inhibition, dose response, selectivity assay for STEP inhibitor project, biochemical (AID 602374); type: functional; conditions: read-out: IC50_Mean
[8] = molecular target: T2, DNA repair protein RAD52 homolog (Homo sapiens, UniProt P43351); type: functional, biochemical
T2 sequence (P43351 whole entry): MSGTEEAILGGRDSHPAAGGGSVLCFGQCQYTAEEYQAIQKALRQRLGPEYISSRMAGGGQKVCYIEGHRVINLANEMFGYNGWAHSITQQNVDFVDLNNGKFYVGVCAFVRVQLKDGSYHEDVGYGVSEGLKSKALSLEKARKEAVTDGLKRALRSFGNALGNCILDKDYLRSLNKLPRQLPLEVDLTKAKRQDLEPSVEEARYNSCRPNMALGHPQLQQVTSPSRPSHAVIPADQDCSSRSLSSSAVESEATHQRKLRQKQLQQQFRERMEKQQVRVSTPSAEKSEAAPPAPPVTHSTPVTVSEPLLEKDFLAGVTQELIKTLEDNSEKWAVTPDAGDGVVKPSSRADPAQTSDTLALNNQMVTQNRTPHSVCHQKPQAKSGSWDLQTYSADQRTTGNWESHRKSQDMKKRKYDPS

[9] = molecular target: T3, Histone-lysine N-methyltransferase NSD2 (Homo sapiens, UniProt O96028); type: biochemical
T3 sequence (O96028 whole entry): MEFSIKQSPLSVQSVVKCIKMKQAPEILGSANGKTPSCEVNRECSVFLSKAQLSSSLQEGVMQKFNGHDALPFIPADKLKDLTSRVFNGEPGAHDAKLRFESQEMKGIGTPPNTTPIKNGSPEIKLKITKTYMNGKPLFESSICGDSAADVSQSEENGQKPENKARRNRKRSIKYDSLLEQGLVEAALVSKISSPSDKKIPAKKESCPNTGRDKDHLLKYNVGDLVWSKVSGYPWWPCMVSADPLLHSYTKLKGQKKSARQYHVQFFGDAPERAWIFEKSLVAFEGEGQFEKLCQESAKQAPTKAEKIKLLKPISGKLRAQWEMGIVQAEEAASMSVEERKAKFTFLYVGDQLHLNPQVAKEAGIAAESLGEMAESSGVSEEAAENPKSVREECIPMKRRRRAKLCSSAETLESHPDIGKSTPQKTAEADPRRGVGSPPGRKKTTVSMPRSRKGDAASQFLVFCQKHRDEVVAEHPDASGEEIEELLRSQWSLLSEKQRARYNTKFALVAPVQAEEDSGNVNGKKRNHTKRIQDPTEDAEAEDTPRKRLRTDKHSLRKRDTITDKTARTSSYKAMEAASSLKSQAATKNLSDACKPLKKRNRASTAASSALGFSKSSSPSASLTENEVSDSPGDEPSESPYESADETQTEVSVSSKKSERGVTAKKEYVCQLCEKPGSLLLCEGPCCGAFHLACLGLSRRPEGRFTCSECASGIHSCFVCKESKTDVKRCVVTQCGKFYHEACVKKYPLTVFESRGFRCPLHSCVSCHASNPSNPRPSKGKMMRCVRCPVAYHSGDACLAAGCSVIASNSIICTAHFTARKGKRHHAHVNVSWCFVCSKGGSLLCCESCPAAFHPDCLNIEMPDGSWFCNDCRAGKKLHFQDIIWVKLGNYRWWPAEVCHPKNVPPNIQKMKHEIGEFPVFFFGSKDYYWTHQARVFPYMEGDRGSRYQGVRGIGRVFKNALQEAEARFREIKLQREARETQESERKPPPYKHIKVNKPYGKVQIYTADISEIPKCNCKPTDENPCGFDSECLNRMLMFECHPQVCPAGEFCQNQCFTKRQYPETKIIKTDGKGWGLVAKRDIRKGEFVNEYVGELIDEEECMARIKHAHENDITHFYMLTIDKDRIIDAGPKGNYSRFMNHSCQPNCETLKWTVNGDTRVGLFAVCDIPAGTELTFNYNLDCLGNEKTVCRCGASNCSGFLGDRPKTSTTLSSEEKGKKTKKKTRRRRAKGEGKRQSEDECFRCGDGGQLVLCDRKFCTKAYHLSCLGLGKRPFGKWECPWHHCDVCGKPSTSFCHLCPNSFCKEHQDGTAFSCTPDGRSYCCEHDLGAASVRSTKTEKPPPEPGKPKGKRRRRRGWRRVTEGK

[10] = molecular target: T4, Voltage-gated N-type calcium channel alpha-1B subunit/Amyloid beta A4 precursor protein-binding family A member 1 (Homo sapiens, UniProt Q00975+Q02410); test: disruptors of Mint-PDZ/N-type channel peptide interaction – biochemical, HTRF, set 2, SAR follow-up (AID 434980); type: functional
[11] = molecular target: T4, Voltage-gated N-type calcium channel alpha-1B subunit/Amyloid beta A4 precursor protein-binding family A member 1; test: disruptors of Mint-PDZ/N-type channel peptide interaction – biochemical, HTRF, SAR follow-up (AID 2489); type: functional

T4 sequence (Q00975 whole entry): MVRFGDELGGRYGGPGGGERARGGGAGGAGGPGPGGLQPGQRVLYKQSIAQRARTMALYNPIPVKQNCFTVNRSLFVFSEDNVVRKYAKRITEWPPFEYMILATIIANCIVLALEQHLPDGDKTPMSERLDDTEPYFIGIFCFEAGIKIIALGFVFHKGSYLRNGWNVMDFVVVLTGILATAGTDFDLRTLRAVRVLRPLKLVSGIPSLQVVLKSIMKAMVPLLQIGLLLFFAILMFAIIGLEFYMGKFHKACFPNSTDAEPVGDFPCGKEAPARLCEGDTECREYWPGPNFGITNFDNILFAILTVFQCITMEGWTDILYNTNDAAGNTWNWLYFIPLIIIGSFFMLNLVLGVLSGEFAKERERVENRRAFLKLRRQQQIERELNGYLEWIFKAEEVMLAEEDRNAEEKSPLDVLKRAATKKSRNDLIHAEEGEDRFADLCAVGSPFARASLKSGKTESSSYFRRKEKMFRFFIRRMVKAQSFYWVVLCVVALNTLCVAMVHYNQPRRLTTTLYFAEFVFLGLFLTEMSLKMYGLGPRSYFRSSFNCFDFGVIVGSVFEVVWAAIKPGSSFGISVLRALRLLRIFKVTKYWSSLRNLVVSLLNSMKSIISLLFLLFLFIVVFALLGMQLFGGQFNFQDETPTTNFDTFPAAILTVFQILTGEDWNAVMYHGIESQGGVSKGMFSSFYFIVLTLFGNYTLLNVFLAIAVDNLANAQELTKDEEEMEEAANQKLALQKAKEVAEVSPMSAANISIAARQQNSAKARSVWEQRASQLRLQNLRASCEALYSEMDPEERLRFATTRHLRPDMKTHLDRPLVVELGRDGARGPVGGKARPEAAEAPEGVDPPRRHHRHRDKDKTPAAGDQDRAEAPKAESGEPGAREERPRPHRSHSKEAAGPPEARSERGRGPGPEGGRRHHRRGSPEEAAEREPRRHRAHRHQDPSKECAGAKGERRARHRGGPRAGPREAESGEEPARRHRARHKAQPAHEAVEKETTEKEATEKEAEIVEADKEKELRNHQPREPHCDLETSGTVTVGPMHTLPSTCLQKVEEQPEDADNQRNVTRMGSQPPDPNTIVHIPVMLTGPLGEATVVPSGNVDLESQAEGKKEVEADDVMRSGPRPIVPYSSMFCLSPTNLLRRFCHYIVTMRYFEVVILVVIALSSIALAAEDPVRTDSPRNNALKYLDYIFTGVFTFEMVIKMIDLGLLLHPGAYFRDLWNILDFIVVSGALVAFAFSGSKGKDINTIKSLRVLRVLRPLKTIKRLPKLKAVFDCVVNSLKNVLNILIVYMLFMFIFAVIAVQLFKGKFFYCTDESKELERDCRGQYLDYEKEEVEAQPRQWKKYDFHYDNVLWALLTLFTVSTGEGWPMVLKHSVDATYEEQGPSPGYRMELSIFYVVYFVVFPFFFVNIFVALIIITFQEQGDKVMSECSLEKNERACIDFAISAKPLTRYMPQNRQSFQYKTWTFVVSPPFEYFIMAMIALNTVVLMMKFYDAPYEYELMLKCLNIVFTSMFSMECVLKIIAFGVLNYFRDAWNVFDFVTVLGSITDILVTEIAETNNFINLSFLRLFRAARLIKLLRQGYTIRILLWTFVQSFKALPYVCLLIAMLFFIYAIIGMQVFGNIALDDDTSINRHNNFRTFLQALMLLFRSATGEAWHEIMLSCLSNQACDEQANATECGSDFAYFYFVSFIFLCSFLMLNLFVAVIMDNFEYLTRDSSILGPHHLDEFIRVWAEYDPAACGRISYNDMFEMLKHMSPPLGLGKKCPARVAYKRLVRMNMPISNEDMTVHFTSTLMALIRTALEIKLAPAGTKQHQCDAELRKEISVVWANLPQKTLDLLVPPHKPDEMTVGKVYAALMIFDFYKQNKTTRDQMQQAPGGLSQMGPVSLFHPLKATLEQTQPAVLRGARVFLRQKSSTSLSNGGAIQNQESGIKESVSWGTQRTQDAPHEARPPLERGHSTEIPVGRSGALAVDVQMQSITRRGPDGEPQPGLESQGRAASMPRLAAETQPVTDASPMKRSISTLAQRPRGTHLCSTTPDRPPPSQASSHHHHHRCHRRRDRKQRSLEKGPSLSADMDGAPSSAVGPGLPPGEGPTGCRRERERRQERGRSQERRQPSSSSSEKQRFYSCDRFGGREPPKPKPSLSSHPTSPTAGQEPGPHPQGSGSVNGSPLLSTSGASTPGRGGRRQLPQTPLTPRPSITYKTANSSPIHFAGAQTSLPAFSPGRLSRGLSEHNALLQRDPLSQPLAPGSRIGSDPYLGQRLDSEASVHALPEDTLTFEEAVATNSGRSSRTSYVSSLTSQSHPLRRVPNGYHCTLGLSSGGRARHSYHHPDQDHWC
T4 sequence (Q02410 whole entry): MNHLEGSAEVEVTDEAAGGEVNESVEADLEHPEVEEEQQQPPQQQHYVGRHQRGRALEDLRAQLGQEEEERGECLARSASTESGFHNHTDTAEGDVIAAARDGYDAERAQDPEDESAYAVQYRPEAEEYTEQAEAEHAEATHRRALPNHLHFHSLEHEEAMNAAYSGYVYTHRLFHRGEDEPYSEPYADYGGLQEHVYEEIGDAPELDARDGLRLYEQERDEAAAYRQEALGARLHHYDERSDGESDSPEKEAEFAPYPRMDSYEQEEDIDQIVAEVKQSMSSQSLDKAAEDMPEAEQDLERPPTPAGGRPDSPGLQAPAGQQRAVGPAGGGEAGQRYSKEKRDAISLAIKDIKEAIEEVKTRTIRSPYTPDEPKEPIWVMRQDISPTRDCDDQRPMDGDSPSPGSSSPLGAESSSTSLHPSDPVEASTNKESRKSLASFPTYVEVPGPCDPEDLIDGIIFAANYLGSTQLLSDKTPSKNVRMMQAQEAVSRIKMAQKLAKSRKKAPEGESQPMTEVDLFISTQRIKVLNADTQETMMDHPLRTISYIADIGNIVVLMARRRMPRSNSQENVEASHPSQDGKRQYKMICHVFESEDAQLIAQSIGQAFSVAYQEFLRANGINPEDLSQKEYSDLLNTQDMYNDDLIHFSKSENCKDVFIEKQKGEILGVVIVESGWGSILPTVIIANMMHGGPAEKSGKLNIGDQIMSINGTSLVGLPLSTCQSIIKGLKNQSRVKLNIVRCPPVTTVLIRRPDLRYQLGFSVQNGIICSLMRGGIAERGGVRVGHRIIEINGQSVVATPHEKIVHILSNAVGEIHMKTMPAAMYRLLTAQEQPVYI
Tumor necrosis factor, sequence (P01375 whole entry, the tested form may be a part): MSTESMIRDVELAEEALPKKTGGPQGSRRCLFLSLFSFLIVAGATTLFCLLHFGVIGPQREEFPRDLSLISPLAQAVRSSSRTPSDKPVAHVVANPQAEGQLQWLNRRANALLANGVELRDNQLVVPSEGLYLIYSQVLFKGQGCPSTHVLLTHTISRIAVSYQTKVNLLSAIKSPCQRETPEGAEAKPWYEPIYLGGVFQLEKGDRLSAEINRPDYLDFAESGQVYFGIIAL
Nucleotide-binding oligomerization domain-containing protein 1, sequence (Q9Y239 whole entry, the tested form may be a part): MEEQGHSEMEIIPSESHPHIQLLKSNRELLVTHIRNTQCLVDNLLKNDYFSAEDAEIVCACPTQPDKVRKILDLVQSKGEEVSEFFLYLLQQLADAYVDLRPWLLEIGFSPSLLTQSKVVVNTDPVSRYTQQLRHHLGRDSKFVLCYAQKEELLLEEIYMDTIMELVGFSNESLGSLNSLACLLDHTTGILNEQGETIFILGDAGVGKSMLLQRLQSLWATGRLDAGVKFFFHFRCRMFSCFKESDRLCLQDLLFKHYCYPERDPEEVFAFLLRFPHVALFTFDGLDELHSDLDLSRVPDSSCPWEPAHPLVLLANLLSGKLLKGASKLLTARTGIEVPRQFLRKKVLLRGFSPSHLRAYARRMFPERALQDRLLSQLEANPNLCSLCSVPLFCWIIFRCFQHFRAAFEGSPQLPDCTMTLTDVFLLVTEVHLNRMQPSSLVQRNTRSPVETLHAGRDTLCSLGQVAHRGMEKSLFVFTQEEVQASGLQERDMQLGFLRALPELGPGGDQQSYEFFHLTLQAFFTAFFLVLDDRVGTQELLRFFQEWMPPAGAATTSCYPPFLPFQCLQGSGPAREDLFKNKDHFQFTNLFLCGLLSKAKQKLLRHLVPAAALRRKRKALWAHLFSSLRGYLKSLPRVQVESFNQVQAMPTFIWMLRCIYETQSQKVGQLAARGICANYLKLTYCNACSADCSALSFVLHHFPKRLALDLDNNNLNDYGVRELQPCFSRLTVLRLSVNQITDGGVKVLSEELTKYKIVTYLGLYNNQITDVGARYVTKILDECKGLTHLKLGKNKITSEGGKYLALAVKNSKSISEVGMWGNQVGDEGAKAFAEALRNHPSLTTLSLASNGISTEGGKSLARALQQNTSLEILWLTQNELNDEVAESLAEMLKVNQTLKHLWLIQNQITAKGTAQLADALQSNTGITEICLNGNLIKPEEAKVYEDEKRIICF
Eukaryotic translation initiation factor 4E, sequence (P63073 whole entry): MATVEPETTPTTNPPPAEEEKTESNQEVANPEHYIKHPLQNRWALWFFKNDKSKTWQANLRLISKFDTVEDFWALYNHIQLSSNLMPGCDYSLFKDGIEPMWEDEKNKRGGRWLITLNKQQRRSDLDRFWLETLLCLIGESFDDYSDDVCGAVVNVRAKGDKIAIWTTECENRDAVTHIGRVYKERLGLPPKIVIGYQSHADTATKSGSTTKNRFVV
Dual specificity protein phosphatase 3, sequence (P51452 whole entry): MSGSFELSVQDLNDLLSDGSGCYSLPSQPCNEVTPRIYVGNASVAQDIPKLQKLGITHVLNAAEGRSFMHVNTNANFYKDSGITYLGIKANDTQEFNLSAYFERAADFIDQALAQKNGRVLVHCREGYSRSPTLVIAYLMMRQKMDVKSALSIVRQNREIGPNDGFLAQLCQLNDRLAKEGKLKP

For CCOC(=O)Cc1c(Sc2ccccc2)c2ccccc2n1C, the IC50 [1] was > 100 µM (inactive) and the IC50 [2] was > 100 µM (inactive).
With CC(=O)N1c2ccc(S(=O)(=O)N3CCN(c4ccccc4)CC3)cc2CC1C (centres undefined) the IC50 (Tumor necrosis factor) was 14.1 µM (active), the IC50 [3] was 11.1 µM (active) and the IC50 (HEK293) was > 20 µM (inactive).
With N=C(NCc1ccc2c(c1)OCO2)NC(=O)c1ccccc1 the IC50 [4] was 17.3 µM (active), the IC50 (Hexokinase HKDC1) was 25.8 µM (inactive) and the IC50 [5] was 19 µM (active). The IC50 [6] was > 80 µM (inactive), the IC50 [7] was 24.1 µM (inactive) and the AC50 [8] was 17.2 µM (active). The AC50 [9] was 6.74 µM (active).
O=C(c1cc(-c2ccco2)nc2ccccc12)N1CCC(c2ccccc2)C1 (centres undefined) was tested, and the IC50 [10] was 13.6 µM (active) and the IC50 [11] was > 56.8 µM (inactive).
